# Like-named read-outs stand apart in the source and are kept apart here.
# Assays:
# patients = assay: pooled previously published phentermine clinical trials (FIG. 1A); assay type: in vivo, human; conditions: dropouts included as having lost no net weight
# Source text: Studies using phentermine alone or phentermine mixed with a placebo have reported significant patient dropout rates in a typical 8-12 weeks phentermine clinical trial (Lucey et al “Chlorphentermine, A New ‘Appetite Suppressant,’ A Cross-Over Double-Blind Trial,” Ulster Med. J., 1962, pages 181-184 reports a 66% dropout rate, Kim et al., “Effects on Weight Reduction and Safety of Short-Term Phentermine Administration in Korean Obese People,” Yonsei Med J., 2006 Vol. 47, No. 5, pages 614-625 reports a 47% dropout rate, Truant reports a 66% dropout rate, Munro reports a 41% dropout rate, and Langlois et al., “A Double-Blind Clinical Evaluation of the Safety and Efficacy of Phentermine Hydrochloride (Fastin) in the Treatment of Exogenous Obesity,” Curr Ther Res Clin Exp., 1974, Vol. 16, No. 4, pages 289-296 reports a 41% dropout rate). For broad clinical adoption, the intent to treat weight loss, e.g., the average weight loss of all the patients that were enrolled in the study, is the key measure.
# FIG. 1A is a table showing the results of various previously published clinical trials using phentermine.
# [1] = system: overweight (7) and obese (16) patients; assay: study of customized weekly dose patterns of moderate and low dose phentermine capsules; assay type: in vivo, human
# Protocol: A study was performed including 23 overweight (7) and obese (16) patients whose average initial weight was 207 lb. Inclusion and exclusion criteria were similar to those of many published phentermine clinical trials. The patients were offered conventional dietary advice, provided meal replacements in the form of one to two commercial shakes (Usana Health Sciences, Salt Lake City, Utah), and were encouraged to exercise. Historical controls available from many published data about weight loss that involved dietary advice, meal replacement, and encouragement to exercise were used.
# During the study, each patient was prescribed a customized dose pattern level of moderate capsules of phentermine and low dose capsules of phentermine that were provided on a biweekly basis in a 7-compartment blister pack where each blister contained a daily red capsule. The patient was instructed to take the appropriate daily capsule in the morning around breakfast time. The pack was labeled “each capsule contains up to 35 mg of phentermine.” In this example, each capsule contained 35 mg, 15 mg, 10 mg, 7.5 mg or 0 mg of phentermine in addition to inert excipients. The patients received two dose pattern weekly medications strips every two weeks.
# In addition to the pills, patients were given a smartphone app or access to a browser-based reporting form where they could report their daily weight, drug compliance, hunger level, exercise level, and side effects experienced. The data was fed directly to a database, which was analyzed by the physician administering the trial and their assistant.
# The algorithm for treatment included the following steps:
# (1) Each patient was started on a weight loss dose pattern with a midlevel weekly phentermine dose pattern level 2 as shown in FIG. 2. […]
# (2) The maximum tolerated weight loss dose pattern for the patient was determined by reviewing the patient's current dose level pattern and his or her electronically reported daily hunger level and side effects such as sleeplessness. […]
# obesity patients = conditions: Munro, cited from earlier work
# [2] = system: patients in medical weight reduction; conditions: Truant, cited from earlier work
compound,measurement,setting,value
"CC(C)(N)Cc1ccccc1 [phentermine, α-dimethyl-β-phenylethylamine]",intent to treat weight loss,patients,9.0 lb
same,patients failing to complete the first 12 weeks in the program,"[1]; first 12 weeks, indicates tolerability of the regimen",None of the patients failed to complete the first 12 weeks
same,average twelve-week weight loss,"[1]; hunger and weight responsive patient-specific regimen, 12 weeks, intent to treat basis",23 lb
same,reported side effects rate,[1]; once the initial dose was titrated,Lower reported side effects rate
same,"average weight loss, intermittent versus continuous",obesity patients; 12-week treatment with weeks 4 through 8 on placebo versus phentermine for all 12 weeks,lost as much weigh on average
same,weight loss,"obesity patients; alternating monthly placebo/active trial, twelve weeks",15 lbs
same,weight lost,"[2]; phentermine for twelve weeks except placebo on weeks 4, 8, and 12",16.6 lb
same,weight lost,[2]; phentermine for twelve weeks,18.8 lb
